Test results: publication PMC4593760 (Nuclear medicine and biology, 2015)

Target: NTR1 (Homo sapiens, UniProt P30989)
Test: In vitro competitive binding on HT-29 cells against 177Lu-N1

Chain of NTR1 (P30989 whole entry): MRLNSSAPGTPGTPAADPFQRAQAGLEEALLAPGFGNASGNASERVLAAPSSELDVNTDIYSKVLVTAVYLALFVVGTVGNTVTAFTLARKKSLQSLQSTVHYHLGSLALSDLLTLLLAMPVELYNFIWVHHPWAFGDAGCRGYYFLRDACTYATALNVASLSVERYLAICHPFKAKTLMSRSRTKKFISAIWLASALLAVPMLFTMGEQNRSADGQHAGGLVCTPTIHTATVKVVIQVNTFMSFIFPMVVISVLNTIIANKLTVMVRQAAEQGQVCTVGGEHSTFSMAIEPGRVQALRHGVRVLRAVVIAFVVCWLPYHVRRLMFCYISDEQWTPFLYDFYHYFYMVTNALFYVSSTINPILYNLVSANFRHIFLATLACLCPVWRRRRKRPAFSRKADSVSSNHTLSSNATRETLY

SMILES	IC50 [nM]
Cc1cc(O)cc(C)c1C[C@H](NC(=O)[C@@H]1CCCN1C(=O)[C@H](CCCNC(=N)N)NC(=O)[C@H](CCCNC(=N)N)N(C)C(=O)[C@@H]1CCCN1C(=O)[C@H](CCCCN)NC(=O)CN1CCN(CC(=O)O)CCN(CC(=O)O)CCN(CC(=O)O)CC1)C(=O)N[C@H](C(=O)N[C@@H](CC(C)C)C(=O)O)C(C)(C)C [N0, DOTA-Lys-Pro-(N-Me)Arg-Arg-Pro-Dmt-Tle-Leu-OH]	52.3 ± 1.5
Cc1cc(O)cc(C)c1C[C@H](NC(=O)[C@@H]1CCCN1C(=O)[C@H](CCCNC(=N)N)NC(=O)[C@H](CCCNC(=N)N)N(C)C(=O)[C@@H]1CCCN1C(=O)[C@H](CCCCN)NC(=O)CCNC(=O)CN1CCN(CC(=O)O)CCN(CC(=O)O)CCN(CC(=O)O)CC1)C(=O)N[C@H](C(=O)N[C@@H](CC(C)C)C(=O)O)C(C)(C)C [N1, DOTA-β-Ala-Lys-Pro-(N-Me)Arg-Arg-Pro-Dmt-Tle-Leu-OH]	27.6 ± 1.3
